Active and inactive are the calls of the source. The calls are words filed in the database; no cut-off is given here.
How the values were obtained:
MDA-MB-231 [1] = experiment: Induction of ROS generation in human MDA-MB-231 cells assessed as increase in intracellular ROS level at 40 uM incubated for 48 hrs by DCFH-DA staining based fluorescence microscopic analysis (Rvb=79.6%); format: functional
[2] = Inhibition of PI3K/AKT/mTOR signaling pathway in human MDA-MB-231 cells assessed as decrease in AKT phosphorylation at 1 to 4 uM incubated for 6 hrs by Western blot analysis; format: cell-based; details: dose 1-4 µM
[3] = Antiproliferative activity against human HEK293 cells assessed as reduction in cell viability measured for 48 hrs by MTT assay; format: toxicity, cell-based
MDA-MB-231 [4] = experiment: Antitumor activity against human MDA-MB-231 cells xenografted in nude mouse assessed as inhibition of proliferation of tumor cells at 10 mg/kg, ip measured for 3 days by H and E staining based analysis; format: functional, organism-based; details: time 3.0 day
[5] = molecular target: Dual specificity protein kinase CLK2 (Homo sapiens, UniProt P49760); experiment: Inhibition of CLK2 (unknown origin)
HepG2 = experiment: Antiproliferative activity against human HepG2 cells assessed as reduction in cell viability measured for 48 hrs by MTT assay; format: functional, cell-based; details: HepG2, 48 h
MDA-MB-231 [6] = experiment: Antiproliferative activity against human MDA-MB-231 cells assessed as reduction in cell viability measured for 48 hrs by MTT assay; format: functional, cell-based; details: MDA-MB-231, 48 h
[7] = molecular target: Dual specificity protein kinase CLK1 (Homo sapiens, UniProt P49759); experiment: Inhibition of CLK1 (unknown origin)
[8] = Antiproliferative activity against human HUVEC cells assessed as reduction in cell viability measured for 48 hrs by MTT assay; format: toxicity, cell-based
[9] = Inhibition of PI3K/AKT/mTOR signaling pathway in human MDA-MB-231 cells assessed as decrease in mTOR expression at 1 to 4 uM incubated for 6 hrs by Western blot analysis; format: cell-based; details: dose 1-4 µM
[10] = molecular target: Casein kinase I isoform epsilon (Homo sapiens, UniProt P49674); experiment: Inhibition of CK1epsilon (unknown origin)
MGC-803 = experiment: Antiproliferative activity against human MGC-803 cells assessed as reduction in cell viability measured for 48 hrs by MTT assay; format: functional, cell-based; details: MGC-803, 48 h
MDA-MB-231 [11] = experiment: Inhibition of cell migration human MDA-MB-231 cells assessed as migration distance at 25 uM incubated for 48 hrs by wound healing assay (reference value: 642.72 micrometer); format: functional
MDA-MB-231 [12] = experiment: Inhibition of cell migration human MDA-MB-231 cells at 0.01 to 0.4 uM incubated for 24 hrs by DAPI staining based analysis; format: functional; details: dose 0.01-0.4 µM
[13] = Inhibition of PI3K/AKT/mTOR signaling pathway in human MDA-MB-231 cells assessed as decrease in EGFR expression at 1 to 4 uM incubated for 6 hrs by Western blot analysis; format: cell-based; details: dose 1-4 µM
Cell membrane = experiment: Induction of mitochondrial membrane potential loss in human MDA-MB-231 cells assessed as increase in fluorescence intensity at 40 uM incubated for 48 hrs by TMRM dye based flow cytometry analysis (reference value: 97.5%)
MDA-MB-231 [14] = experiment: Antiproliferative activity against human MDA-MB-231 cells assessed as reduction in viability at 10 uM incubated for 7.5 hrs by MTT assay; format: functional
MDA-MB-231 [15] = experiment: Antitumor activity against human MDA-MB-231 cells xenografted in nude mouse assessed as decrease in Ki67 expression at 10 mg/kg, ip measured for 3 days by immunohistochemistry analysis; format: functional, organism-based; details: time 3.0 day
MDA-MB-231 [16] = experiment: Induction of apoptosis in human MDA-MB-231 cells assessed as increase in number of cell debris at 4 uM incubated for 48 hrs; format: functional, cell-based
HUVEC [17] = experiment: Antiangiogenesis activity in HUVEC cells at 62.5 nM incubated for 12 hrs by microscopic analysis; format: functional, cell-based; details: Homo sapiens
MDA-MB-231 [18] = experiment: Induction of apoptosis in human MDA-MB-231 cells assessed as apoptotic cells at 40 uM incubated for 48 hrs by Annexin V-FITC/PI staining based analysis; format: functional
[19] = Hepatotoxicity in nude mouse at 10 mg/kg, ip measured for 3 days; format: toxicity, organism-based; details: in vivo, 72 h, time 3 day
[20] = Inhibition of PI3K/AKT/mTOR signaling pathway in human MDA-MB-231 cells assessed as decrease in mTOR phosphorylation at 1 to 4 uM incubated for 6 hrs by Western blot analysis; format: cell-based; details: dose 1-4 µM
[21] = molecular target: Dual specificity tyrosine-phosphorylation-regulated kinase 1A (Homo sapiens, UniProt Q13627); experiment: Inhibition of DYRK1A (unknown origin)
[22] = Inhibition of PI3K/AKT/mTOR signaling pathway in human MDA-MB-231 cells assessed as decrease in AKT expression at 1 to 4 uM incubated for 6 hrs by Western blot analysis; format: cell-based; details: dose 1-4 µM
MDA-MB-231 [23] = experiment: Antiproliferative activity against human MDA-MB-231 cells assessed as reduction in viability at 4 uM incubated for 7.5 hrs by MTT assay; format: functional
A549 = experiment: Antiproliferative activity against human A549 cells assessed as reduction in cell viability measured for 48 hrs by MTT assay; format: functional, cell-based; details: A549, 48 h
NCI-H1299 = experiment: Antiproliferative activity against human NCI-H1299 cells assessed as reduction in cell viability measured for 48 hrs by MTT assay; format: functional, cell-based; details: NCI-H1299, 48 h
MDA-MB-468 = experiment: Antiproliferative activity against human MDA-MB-468 cells assessed as reduction in cell viability measured for 48 hrs by MTT assay; format: functional, cell-based; details: MDA-MB-468, 48 h
MDA-MB-231 [24] = experiment: Induction of apoptosis in human MDA-MB-231 cells assessed as apoptotic cells at 40 uM incubated for 12 hrs by Annexin V-FITC/PI staining based analysis; format: functional
MDA-MB-231 [25] = experiment: Antitumor activity against human MDA-MB-231 cells xenografted in nude mouse assessed as decrease in CD31 expression at 10 mg/kg, ip measured for 3 days by immunohistochemistry analysis; format: functional, organism-based; details: time 3.0 day
K562 = experiment: Antiproliferative activity against human K562 cells assessed as reduction in cell viability measured for 48 hrs by MTT assay; format: functional, cell-based; details: K562, 48 h
MDA-MB-231 [26] = experiment: Antitumor activity against human MDA-MB-231 cells xenografted in nude mouse assessed as reduction in tumor growth at 10 to 20 mg/kg, ip measured for 3 days; format: functional, organism-based; details: dose 10-20 mg/kg, time 3.0 day
[27] = Inhibition of PI3K/AKT/mTOR signaling pathway in human MDA-MB-231 cells assessed as increase in p38 phosphorylation at 2 to 4 uM incubated for 6 hrs by Western blot analysis; format: cell-based; details: dose 2-4 µM
MCF7 = experiment: Antiproliferative activity against human MCF7 cells assessed as reduction in cell viability measured for 48 hrs by MTT assay; format: functional, cell-based; details: MCF7, 48 h
[28] = molecular target: Cyclin-dependent kinase 7 (Homo sapiens, UniProt P50613); experiment: Inhibition of CDK7 (unknown origin)
HUVEC [29] = experiment: Antiangiogenesis activity in HUVEC cells at 0.03 to 0.3 uM incubated for 12 hrs by microscopic analysis; format: functional, cell-based; details: Homo sapiens, dose 0.03-0.3 µM
HCT-116 = experiment: Antiproliferative activity against human HCT-116 cells assessed as reduction in cell viability measured for 48 hrs by MTT assay; format: functional, cell-based; details: HCT-116, 48 h

Sequence of Casein kinase I isoform epsilon (P49674 whole entry, canonical isoform): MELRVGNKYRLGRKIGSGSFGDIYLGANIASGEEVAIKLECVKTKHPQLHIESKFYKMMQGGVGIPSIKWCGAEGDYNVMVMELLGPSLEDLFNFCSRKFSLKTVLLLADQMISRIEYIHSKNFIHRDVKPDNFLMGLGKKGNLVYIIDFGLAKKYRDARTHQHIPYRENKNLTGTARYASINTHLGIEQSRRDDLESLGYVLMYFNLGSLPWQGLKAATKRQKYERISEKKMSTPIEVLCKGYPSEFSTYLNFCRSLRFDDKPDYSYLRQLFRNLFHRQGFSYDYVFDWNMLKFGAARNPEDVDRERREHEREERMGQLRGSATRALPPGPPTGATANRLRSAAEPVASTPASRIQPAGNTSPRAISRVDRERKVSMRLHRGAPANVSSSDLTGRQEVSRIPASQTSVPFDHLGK
Sequence of Cyclin-dependent kinase 7 (P50613 whole entry): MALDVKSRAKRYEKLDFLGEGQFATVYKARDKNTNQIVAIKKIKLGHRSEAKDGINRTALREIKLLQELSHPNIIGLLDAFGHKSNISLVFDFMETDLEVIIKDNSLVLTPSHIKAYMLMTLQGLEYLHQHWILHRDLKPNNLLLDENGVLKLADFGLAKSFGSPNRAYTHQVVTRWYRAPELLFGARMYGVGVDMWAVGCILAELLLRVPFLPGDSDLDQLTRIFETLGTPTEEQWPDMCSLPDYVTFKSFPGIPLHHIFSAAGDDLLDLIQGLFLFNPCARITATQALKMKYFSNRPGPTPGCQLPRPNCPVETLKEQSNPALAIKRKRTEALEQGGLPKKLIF
Sequence of Dual specificity protein kinase CLK1 (P49759 whole entry): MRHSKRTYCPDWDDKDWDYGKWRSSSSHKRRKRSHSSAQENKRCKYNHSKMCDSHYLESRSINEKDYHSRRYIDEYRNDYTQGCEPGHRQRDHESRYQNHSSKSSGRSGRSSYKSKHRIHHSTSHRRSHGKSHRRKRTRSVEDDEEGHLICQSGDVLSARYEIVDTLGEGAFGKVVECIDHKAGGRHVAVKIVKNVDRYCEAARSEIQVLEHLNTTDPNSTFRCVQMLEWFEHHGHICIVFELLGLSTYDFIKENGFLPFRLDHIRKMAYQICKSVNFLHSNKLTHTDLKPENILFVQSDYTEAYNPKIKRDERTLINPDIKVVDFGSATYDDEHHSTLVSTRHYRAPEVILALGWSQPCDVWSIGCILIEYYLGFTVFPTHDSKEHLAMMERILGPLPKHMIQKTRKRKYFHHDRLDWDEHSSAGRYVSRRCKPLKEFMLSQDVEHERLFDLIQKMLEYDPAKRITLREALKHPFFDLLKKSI
Sequence of Dual specificity protein kinase CLK2 (P49760 whole entry): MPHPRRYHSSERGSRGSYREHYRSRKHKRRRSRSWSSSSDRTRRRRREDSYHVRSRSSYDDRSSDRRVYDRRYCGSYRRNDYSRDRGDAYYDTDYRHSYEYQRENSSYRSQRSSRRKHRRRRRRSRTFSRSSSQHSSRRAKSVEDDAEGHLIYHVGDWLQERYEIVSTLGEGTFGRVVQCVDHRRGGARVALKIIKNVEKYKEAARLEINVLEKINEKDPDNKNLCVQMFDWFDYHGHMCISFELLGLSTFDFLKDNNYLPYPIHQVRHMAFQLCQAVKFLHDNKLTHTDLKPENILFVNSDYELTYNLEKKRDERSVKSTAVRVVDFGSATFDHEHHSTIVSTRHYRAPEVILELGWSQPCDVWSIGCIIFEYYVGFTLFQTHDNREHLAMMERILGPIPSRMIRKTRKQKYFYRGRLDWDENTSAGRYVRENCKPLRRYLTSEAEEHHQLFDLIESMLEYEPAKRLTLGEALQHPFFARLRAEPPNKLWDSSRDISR

IC50 [5]: 194 nM
IC50 (HepG2): 1680 nM
IC50 (MDA-MB-231 [6]): 3150 nM
IC50 [7]: 2970 nM
IC50 [10]: 296 nM
IC50 (MGC-803): 3890 nM
Activity (Cell membrane): 24.5%
IC50 [21]: 3890 nM
IC50 (A549): 2120 nM
IC50 (NCI-H1299): 4280 nM
IC50 (MDA-MB-468): 2820 nM
IC50 (K562): 320 nM
IC50 (MCF7): 430 nM
IC50 [28]: 2320 nM
IC50 (HCT-116): 340 nM
Compound: OCCN1CCC(C2CCN(c3nc(NCc4ccc(F)c(Cl)c4)c4ncn(CC5CC5)c4n3)CC2)CC1
Activity (MDA-MB-231 [1]): 80.7%
inhibition [2]: Active
IC50 at 48 h [3]: 4320 nM
Activity (MDA-MB-231 [4]): Active
IC50 at 48 h [8]: 4260 nM
inhibition [9]: Active
Activity (MDA-MB-231 [11]): 23.48 um
inhibition (MDA-MB-231 [12]): Active
inhibition [13]: Active
Activity (MDA-MB-231 [14]): ~100%
Activity (MDA-MB-231 [15]): Active
Activity (MDA-MB-231 [16]): Active
Activity (HUVEC [17]): Active
Activity (MDA-MB-231 [18]): >95%
Activity [19]: Non-Toxic
inhibition [20]: Active
inhibition [22]: Active
Activity (MDA-MB-231 [23]): ~100%
Activity (MDA-MB-231 [24]): >95%
Activity (MDA-MB-231 [25]): Active
Activity (MDA-MB-231 [26]): Active
inhibition [27]: Active
Activity (HUVEC [29]): Active
